The values that follow are results of earlier work, collected in patent publication US20070072885A1, “BICYCLIC DERIVATIVES FOR THE TREATMENT OF ABNORMAL CELL GROWTH” (Pfizer Inc, priority 2005, published 2007).

Data set [1] relates to another carcinoma which does not express the EGF receptor.
Data set [2] concerns transplanted human mammary carcinoma which expresses epidermal growth factor receptor tyrosine kinase (EGFR). As to conditions: EGFR-expressing carcinoma in athymic nude mice.

As to `O=CN/C=C/c1cc(O)ccc1O` [erbstatin], the “growth of another carcinoma” value in data set [1] is “without effect”. In addition, the “growth of transplanted human mammary carcinoma” value in data set [2] is “selectively attenuates the growth”.
